For orientation: IC50 means the concentration that gives 50% inhibition.

Bounds are passed on as bounds.

In this assay the target is T1, Full-length USP19 (Homo sapiens, UniProt O94966).
T1 construct: Full-length USP19 was purchased from Boston Biochem (E-576); purchased Boston Biochem E-576
T1 sequence (O94966 1-1318): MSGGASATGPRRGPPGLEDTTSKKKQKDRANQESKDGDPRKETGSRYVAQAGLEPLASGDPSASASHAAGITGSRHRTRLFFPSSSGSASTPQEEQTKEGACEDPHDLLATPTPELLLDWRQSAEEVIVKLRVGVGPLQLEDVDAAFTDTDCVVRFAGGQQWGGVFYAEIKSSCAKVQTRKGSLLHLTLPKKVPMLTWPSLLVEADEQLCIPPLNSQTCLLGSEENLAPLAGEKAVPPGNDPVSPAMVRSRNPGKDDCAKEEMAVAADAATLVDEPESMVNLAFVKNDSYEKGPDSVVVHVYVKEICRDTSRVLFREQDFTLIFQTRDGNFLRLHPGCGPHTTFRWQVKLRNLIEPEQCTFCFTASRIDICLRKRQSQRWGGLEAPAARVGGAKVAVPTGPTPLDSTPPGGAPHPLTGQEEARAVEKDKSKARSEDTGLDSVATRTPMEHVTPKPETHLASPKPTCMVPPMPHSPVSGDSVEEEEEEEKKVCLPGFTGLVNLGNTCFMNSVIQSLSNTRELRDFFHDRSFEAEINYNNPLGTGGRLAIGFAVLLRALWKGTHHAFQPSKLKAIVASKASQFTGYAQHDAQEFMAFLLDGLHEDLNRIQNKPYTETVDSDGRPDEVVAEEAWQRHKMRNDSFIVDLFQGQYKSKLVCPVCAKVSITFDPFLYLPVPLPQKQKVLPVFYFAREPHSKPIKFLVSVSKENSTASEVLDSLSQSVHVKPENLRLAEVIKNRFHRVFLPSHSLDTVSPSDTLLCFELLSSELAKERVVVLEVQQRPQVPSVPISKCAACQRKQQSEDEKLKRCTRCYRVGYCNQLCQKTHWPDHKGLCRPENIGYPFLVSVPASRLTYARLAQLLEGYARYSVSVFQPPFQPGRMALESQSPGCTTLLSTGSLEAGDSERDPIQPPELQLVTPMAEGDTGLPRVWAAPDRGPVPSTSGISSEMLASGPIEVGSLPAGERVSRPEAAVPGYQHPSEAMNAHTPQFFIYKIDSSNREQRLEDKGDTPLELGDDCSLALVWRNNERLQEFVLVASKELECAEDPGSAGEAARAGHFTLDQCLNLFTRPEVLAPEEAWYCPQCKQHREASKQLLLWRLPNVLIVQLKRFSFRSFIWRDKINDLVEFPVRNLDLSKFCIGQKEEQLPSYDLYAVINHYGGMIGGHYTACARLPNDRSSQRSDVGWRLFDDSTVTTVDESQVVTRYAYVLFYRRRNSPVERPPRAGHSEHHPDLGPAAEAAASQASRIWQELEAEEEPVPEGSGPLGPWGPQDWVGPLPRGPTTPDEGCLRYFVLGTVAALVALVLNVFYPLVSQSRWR
Kind of assay: USP19 fluorescence polarisation (FP) assay, Ubiquitin-Lys-TAMRA substrate. The class given is biochemical. The settings on record: average of at least two duplicate experiments. The method in brief: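 Fluorescence polarisation (excitation 530 nm, parallel and perpendicular emission at 575 nm) was recorded every 15 min for 90 min after adding the ubiquitin-Lys-TAMRA isopeptide (500 nM as dispensed). Beforehand, the full-length enzyme (2.5 nM as dispensed) sat 30 min at RT with compound diluted from 200 μM to 2 μM in HEPES pH 7.4 buffer with 150 mM NaCl, 5 mM DTT, 0.05% BSA and 0.05% CHAPS. Values normalised to uninhibited wells gave IC50s by non-linear fitting, each the mean of two or more duplicate runs.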
Background: In fluorescence polarisation assays a small probe gives low polarisation when free and higher when bound to something large.

With `Cc1cccnc1CN[C@@H]1CCN(C(=O)N2CC[C@@H](Cn3cnc(-c4ccccc4)cc3=O)C3(CCCC3)C2)[C@H](c2ccccc2)C1` [Example 193, 3-(((R)-7-((2S,4R)-4-(((3-Methylpyridin-2-yl)methyl)amino)-2-phenylpiperidine-1-carbonyl)-7-azaspiro[4.5]decan-10-yl)methyl)-6-phenylpyrimidin-4(3H)-one], the IC50 is 10 to 100 nM. `O=C(N1CC[C@@H](Cn2cnc(-c3ccccc3)cc2=O)C2(CCCC2)C1)N1CCNC[C@H]1c1ccccc1` (single isomer, unassigned) [Example 14]: the IC50 is less than 10 nM. In the case of `O=C(N1CC[C@@H](Cn2cnc(-c3ccccc3)cc2=O)C2(CCCC2)C1)N1CC[C@@H](NCc2ccncn2)C[C@H]1c1cc(F)ccc1F` [Example 170, 3-(((R)-7-((2S,4R)-2-(2,5-Difluorophenyl)-4-((pyrimidin-4-ylmethyl)amino)piperidine-1-carbonyl)-7-azaspiro[4.5]decan-10-yl)methyl)-6-phenylpyrimidin-4(3H)-one], the half-inhibitory concentration (IC50) was less than 10 nM. Consider `CC1(C)CN(C(=O)N2CCNC[C@H]2c2ccccc2)CCC1Cn1ccc(-c2ccccc2)cc1=O` (stereo partly drawn) [Example 20, 1-((3,3-Dimethyl-1-((R)-2-phenylpiperazine-1-carbonyl)piperidin-4-yl)methyl)-4-phenylpyridin-2(1H)-one], for which the IC50 fell in the range of 10 to 100 nM.

Turning to `CN[C@@H]1CCN(C(=O)N2CC[C@@H](Cn3cnc(-c4ccccc4OC)cc3=O)C3(CCCC3)C2)[C@H](c2ccc(F)c(F)c2)C1` [Example 138, 3-(((R)-7-((2S,4R)-2-(3,4-Difluorophenyl)-4-(methylamino)piperidine-1-carbonyl)-7-azaspiro[4.5]decan-10-yl)methyl)-6-(2-methoxyphenyl)pyrimidin-4(3H)-one], the half-maximal inhibitory concentration (IC50) is less than 10 nM. Take `CN[C@@H]1CCN(C(=O)N2CC[C@@H](Cn3cnc(-c4ccccc4OC)cc3=O)C3(CCCC3)C2)[C@H](c2cccc(F)c2F)C1` [Example 149, 3-(((R)-7-((2S,4R)-2-(2,3-Difluorophenyl)-4-(methylamino)piperidine-1-carbonyl)-7-azaspiro[4.5]decan-10-yl)methyl)-6-(2-methoxyphenyl)pyrimidin-4(3H)-one]: the concentration for half-maximal inhibition (IC50) is less than 10 nM. For the compound `C[C@H](CC(F)(F)F)C(=O)N1CCC(Cn2cnc(-c3ccccc3)cc2=O)C2(CCCC2)C1` (stereo partly drawn) [Example 4, 6-Phenyl-3-((7-((R)-4,4,4-trifluoro-2-methylbutanoyl)-7-azaspiro[4.5]decan-10-yl)methyl)pyrimidin-4(3H)-one], the IC50 fell in the range of 1000 to 20000 nM. `CC1(C)CN(C(=O)N2CC[C@@H](N)C[C@H]2c2ccccc2)CC[C@H]1Cn1ccc(-c2ccccc2)cc1=O` [Example 69, 1-(((R)-1-((2S,4R)-4-Amino-2-phenylpiperidine-1-carbonyl)-3,3-dimethylpiperidin-4-yl)methyl)-4-phenylpyridin-2(1H)-one]: the IC50 is less than 10 nM. Regarding `CN[C@@H]1CCN(C(=O)N2CC[C@@H](Cn3cnc(-c4ccccc4)cc3=O)C3(CCCC3)C2)[C@H](c2cc(F)ccc2F)C1` [Example 78, 3-(((R)-7-((2S,4R)-2-(2,5-Difluorophenyl)-4-(methylamino)piperidine-1-carbonyl)-7-azaspiro[4.5]decan-10-yl)methyl)-6-phenylpyrimidin-4(3H)-one], the half-maximal inhibitory concentration (IC50) was less than 10 nM. `CO[C@@]1(Cn2ccc(-c3ccccc3)cc2=O)CCN(C(=O)N2CC[C@@H](N)C[C@H]2c2ccccc2)CC12CCCC2` [Example 73, 1-(((S)-7-((2S,4R)-4-Amino-2-phenylpiperidine-1-carbonyl)-10-methoxy-7-azaspiro[4.5]decan-10-yl)methyl)-4-phenylpyridin-2(1H)-one]: the IC50 was less than 10 nM. For `O=C(N1CC=C(Cn2cnc(-c3ccccc3)cc2=O)C2(CCCC2)C1)N1CCNC[C@H]1c1ccccc1` (single isomer, unassigned) [Example 2] the value was 10 to 100 nM; for `CN[C@@H]1CCN(C(=O)N2CC[C@@H](Cn3cnc(-c4ccccc4)cc3=O)C3(CCCC3)C2)[C@H](c2ccccc2)C1` [Example 56, 3-(((R)-7-((2S,4R)-4-(Methylamino)-2-phenylpiperidine-1-carbonyl)-7-azaspiro[4.5]decan-10-yl)methyl)-6-phenylpyrimidin-4(3H)-one], less than 10 nM; for `C[C@H](CC(F)(F)F)C(=O)N1CCC(N)(Cn2cnc(-c3ccccc3)cc2=O)C2(CCCC2)C1` (stereo partly drawn) [Example 49, 3-((10-Amino-7-((R)-4,4,4-trifluoro-2-methylbutanoyl)-7-azaspiro[4.5]decan-10-yl)methyl)-6-phenylpyrimidin-4(3H)-one], 100 to 1000 nM.

On to `C[C@H]1CN(C(=O)N2CC[C@@H](Cn3cnc(-c4ccccc4)cc3=O)C3(CCCC3)C2)[C@H](c2cc(F)ccc2F)CO1` [Example 201, 3-(((R)-7-((2,5R)-5-(2,5-Difluorophenyl)-2-methylmorpholine-4-carbonyl)-7-azaspiro[4.5]decan-10-yl)methyl)-6-phenylpyrimidin-4(3H)-one], for which the IC50 was less than 10 nM. Turning to `N[C@@H]1CCN(C(=O)N2CCC(Cn3ccc(-c4ccccc4)cc3=O)CC2)[C@H](c2ccccc2)C1` [Example 17, 1-((1-((2S,4R)-4-Amino-2-phenylpiperidine-1-carbonyl)piperidin-4-yl)methyl)-4-phenylpyridin-2(1H)-one], the half-inhibitory concentration (IC50) is 10 to 100 nM. For `CCN[C@@H]1CCN(C(=O)N2CC[C@@H](Cn3ccc(Cl)cc3=O)C3(CCCC3)C2)[C@H](c2cc(F)ccc2F)C1` [Example 179, 4-Chloro-1-(((R)-7-((2S,4R)-2-(2,5-difluorophenyl)-4-(ethylamino)piperidine-1-carbonyl)-7-azaspiro[4.5]decan-10-yl)methyl)pyridin-2(1H)-one] the value was less than 10 nM; for `CN[C@@H]1CCN(C(=O)N2CC[C@@H](Cn3ccc(-c4ccccc4)cc3=O)C3(CCCC3)C2)[C@H](c2cccc(F)c2)C1` [Example 64, 1-(((R)-7-((2S,4R)-2-(3-Fluorophenyl)-4-(methylamino)piperidine-1-carbonyl)-7-azaspiro[4.5]decan-10-yl)methyl)-4-phenylpyridin-2(1H)-one], less than 10 nM; for `N[C@@H]1CCN(C(=O)N2CC[C@@H](Cn3cnc4ccc(F)cc4c3=O)C3(CCCC3)C2)[C@H](c2ccccc2)C1` [Example 100, 3-(((R)-7-((2S,4R)-4-Amino-2-phenylpiperidine-1-carbonyl)-7-azaspiro[4.5]decan-10-yl)methyl)-6-fluoroquinazolin-4(3H)-one], less than 10 nM. Regarding `O=C(N1CC[C@@H](Cn2ccc(Cl)cc2=O)C2(CCCC2)C1)N1CC[C@@H](NCC(F)F)C[C@H]1c1cc(F)ccc1F` [Example 185, 4-Chloro-1-(((R)-7-((2S,4R)-4-((2,2-difluoroethyl)amino)-2-(2,5-difluorophenyl)piperidine-1-carbonyl)-7-azaspiro[4.5]decan-10-yl)methyl)pyridin-2(1H)-one], the IC50 lay in the range of 10 to 100 nM. Turning to `N[C@@H]1CCN(C(=O)N2CC[C@@H](Cn3cnc(-c4ccccc4)cc3=O)C3(CCCC3)C2)[C@H](c2ccc(F)cc2F)C1` [Example 80, 3-(((R)-7-((2S,4R)-4-Amino-2-(2,4-difluorophenyl)piperidine-1-carbonyl)-7-azaspiro[4.5]decan-10-yl)methyl)-6-phenylpyrimidin-4(3H)-one], the IC50 was less than 10 nM. As to `CN[C@@H]1CCN(C(=O)N2CC[C@@H](CN3CCOCC3=O)C3(CCCC3)C2)[C@H](c2cc(F)ccc2F)C1` [Example 159, 4-(((R)-7-((2S,4R)-2-(2,5-Difluorophenyl)-4-(methylamino)piperidine-1-carbonyl)-7-azaspiro[4.5]decan-10-yl)methyl)morpholin-3-one], the IC50 is less than 10 nM.

Values taken from patent publication US20240327382A1 (ALMAC DISCOVERY LIMITED, priority 2021, published 2024).
